Experimental data: patent US10947254B2, “Methods for treating ulcerative colitis using 3-((1R,3s,5S)-3-((7-((5-methyl-1H-pyrazol-3-yl)amino)-1,6-naphthyridin-5-yl)amino)-8-azabicyclo[3.2.1]octan-8-yl)propanenitrile” (priority 2015, dated 2021)

What was measured:
[1] = tested on: oxazolone-induced colitis; test: Mouse model of oxazolone-induced colitis; type: in vivo, BALB/C mice; conditions: mice, PO, 1, 3, and/or 10 mg/kg BID (doses up to 10 mg/kg BID)
Method: Assay 7: Mouse Model of Oxazalone-Induced Colitis
Oxazolone-induced colitis is an experimental model that has a histological resemblance to human ulcerative colitis (Heller et al. Immunology, 2002, 17, 629-638). Adult BALB/C mice from Harlan were used in the assay. On day 1, animals were lightly anesthetized with isoflurane and the hairs between the shoulder were carefully removed before oxazolone (4%, 150 μL, 4:1 acetone:olive oil formulation) or vehicle solution was slowly applied for skin sensitization. Seven days after skin sensitization, the mice were fasted overnight, anesthetized with isoflurane inhalation, and a 1 mL syringe equipped with a 3.5-F catheter, filled with oxazolone solution, was inserted carefully about 4 cm into the colon of the mouse. Following insertion, 50 μL of the oxazolone solution (1%, 1:1 ethanol:water formulation) was injected very slowly (over 30 sec using an injection pump) into the colon. The catheter was removed and the mice were held vertically (head down) for 2 min to ensure that the entire oxazolone solution remained inside the colon. Drug treatment (PO, BID or TID) or vehicle was initiated a day prior to the oxazolone intrarectal (IR) challenge. Two-day post oxazolone intrarectal challenge, the Disease Activity Index (DAI) was assessed by treatment-blinded experimenters for each mouse according to the criteria score: stool consistency score (0, normal; 2, loose; 4, diarrhea), gross bleeding score (0, absence; 2, blood tinged; 4, presence), and weight loss score (0, none; 1, 1%-5%; 2, 5%-10%; 3, 10%-20%; 4, more than 20%); DAI=average of (stool consistency score+gross bleeding score+weight loss score).
Selected compounds of the invention were tested in the assay. Efficacy in the model is evidenced by a decrease in DAI score as compared with the score from vehicle treated animals.

[2] = tested on: IL-13 induced STAT6 phosphorylation in BEAS-2B human lung epithelial cells; conditions: BEAS-2B cells
[3] = tested on: IL-4 induced STAT6 phosphorylation in THP-1 human monocytic cells; conditions: THP-1 cells

Cc1cc(Nc2cc3ncccc3c(NC3CC4CCCC(C3)N4C(=O)C(C)O)n2)n[nH]1 (centres unmarked) [Example 2-16]
decrease in DAI score as compared with vehicle treated animals [1]: did not exhibit a statistically significant decrease

Cc1cc(Nc2cc3ncccc3c(N[C@@H]3C[C@H]4CCC[C@@H](C3)N4S(=O)(=O)c3cccnc3)n2)n[nH]1 [Example 8, N^7-(5-methyl-1H-pyrazol-3-yl)-N^5-((1R,3s,5S)-9-(pyridin-3-ylsulfonyl)-9-azabicyclo[3.3.1]nonan-3-yl)-1,6-naphthyridine-5,7-diamine]
decrease in DAI score as compared with vehicle treated animals [1]: statistically significant decrease

Cc1cc(Nc2nc(N[C@@H]3C[C@H]4CCC[C@@H](C3)N4S(=O)(=O)c3cccnc3)c3cccnc3c2F)n[nH]1 [Example 8-12]
BEAS2B pIC50 [2]: A (A represents a pEC50 value ≥7.5 (EC50≤32 nM))
THP-1 IL4 pIC50 [3]: A (A represents a pEC50 value ≥7.5 (EC50≤32 nM))

COc1cnc2cc(Nc3cc(C)[nH]n3)nc(N[C@@H]3C[C@H]4CCC[C@@H](C3)N4CCC#N)c2c1 [Example 6-31]
BEAS2B pIC50 [2]: A (A represents a pEC50 value ≥7.5 (EC50≤32 nM))
THP-1 IL4 pIC50 [3]: A (A represents a pEC50 value ≥7.5 (EC50≤32 nM))

Cc1cc(Nc2cc3ncccc3c(N[C@@H]3C[C@H]4CCC[C@@H](C3)N4S(=O)(=O)c3ccccc3)n2)n[nH]1 [Example 9, N^7-(5-methyl-1H-pyrazol-3-yl)-N^5-((1R,3s,5S)-9-(phenylsulfonyl)-9-azabicyclo[3.3.1]nonan-3-yl)-1,6-naphthyridine-5,7-diamine]
decrease in DAI score as compared with vehicle treated animals [1]: did not exhibit a statistically significant decrease

Cc1cc(Nc2cc3ncccc3c(N[C@@H]3C[C@H]4CCC[C@@H](C3)N4CC(C)C)n2)n[nH]1 [Example 1-43]
BEAS2B pIC50 [2]: A (A represents a pEC50 value ≥7.5 (EC50≤32 nM))
THP-1 IL4 pIC50 [3]: A (A represents a pEC50 value ≥7.5 (EC50≤32 nM))

Cc1cc(Nc2cc3ncccc3c(N[C@@H]3C[C@H]4CC[C@@H](C3)N4CC(C)C#N)n2)n[nH]1 (some centres unmarked) [Example 1-23]
BEAS2B pIC50 [2]: A (A represents a pEC50 value ≥7.5 (EC50≤32 nM))
THP-1 IL4 pIC50 [3]: A (A represents a pEC50 value ≥7.5 (EC50≤32 nM))

Cc1cc(Nc2cc3ncccc3c(N[C@@H]3C[C@H]4CCC[C@@H](C3)N4Cc3cccnc3)n2)n[nH]1 [Example 1-47]
BEAS2B pIC50 [2]: A (A represents a pEC50 value ≥7.5 (EC50≤32 nM))
THP-1 IL4 pIC50 [3]: A (A represents a pEC50 value ≥7.5 (EC50≤32 nM))

COCCS(=O)(=O)N1[C@@H]2CC[C@H]1C[C@H](Nc1nc(Nc3cc(C)[nH]n3)cc3ncccc13)C2 [Example 6, N^5-((1R,3s,5S)-8-((2-methoxyethyl)sulfonyl)-8-azabicyclo[3.2.1]octan-3-yl)-N^7-(5-methyl-1H-pyrazol-3-yl)-1,6-naphthyridine-5,7-diamine]
decrease in DAI score as compared with vehicle treated animals [1]: statistically significant decrease

Cc1cc(Nc2cc3ncccc3c(N[C@@H]3C[C@H]4CCC[C@@H](C3)N4CCC(F)(F)F)n2)n[nH]1 [Example 1-44]
BEAS2B pIC50 [2]: A (A represents a pEC50 value ≥7.5 (EC50≤32 nM))
THP-1 IL4 pIC50 [3]: A (A represents a pEC50 value ≥7.5 (EC50≤32 nM))

Cc1cc(Nc2cc3ncccc3c(N[C@@H]3C[C@H]4CCC[C@@H](C3)N4CC(=O)N(C)C)n2)n[nH]1 [Example 1-38]
decrease in DAI score as compared with vehicle treated animals [1]: statistically significant decrease

Cc1cnc2cc(Nc3cc(C)[nH]n3)nc(N[C@@H]3C[C@H]4CC[C@@H](C3)N4CCC#N)c2c1 [Example 6-1]
BEAS2B pIC50 [2]: A (A represents a pEC50 value ≥7.5 (EC50≤32 nM))
THP-1 IL4 pIC50 [3]: A (A represents a pEC50 value ≥7.5 (EC50≤32 nM))

Cc1cc(Nc2cc3ncccc3c(N[C@@H]3C[C@H]4CCC[C@@H](C3)N4C(=O)CN(C)C)n2)n[nH]1 [Example 4, 2-(Dimethylamino)-1-((1R,3s,5S)-3-((7-((5-methyl-1H-pyrazol-3-yl)amino)-1,6-naphthyridin-5-yl)amino)-9-azabicyclo[3.3.1]nonan-9-yl)ethan-1-one]
decrease in DAI score as compared with vehicle treated animals [1]: statistically significant decrease

Cc1cc(Nc2cc3ncccc3c(N[C@@H]3C[C@H]4CC[C@@H](C3)N4S(=O)(=O)C3CC3)n2)n[nH]1 [Example 4-4]
decrease in DAI score as compared with vehicle treated animals [1]: did not exhibit a statistically significant decrease

Cc1cc(Nc2cc3ncccc3c(N[C@@H]3C[C@H]4CC[C@@H](C3)N4C(=O)C(F)F)n2)n[nH]1 [Example 5, 2,2-difluoro-1-((1R,3s,5S)-3-((7-((5-methyl-1H-pyrazol-3-yl)amino)-1,6-naphthyridin-5-yl)amino)-8-azabicyclo[3.2.1]octan-8-yl)ethan-1-one]
decrease in DAI score as compared with vehicle treated animals [1]: statistically significant decrease

Cc1cc(Nc2cc3ncccc3c(N[C@@H]3C[C@H]4CCC[C@@H](C3)N4Cc3ccncc3C#N)n2)n[nH]1 [Example 1-56]
BEAS2B pIC50 [2]: A (A represents a pEC50 value ≥7.5 (EC50≤32 nM))
THP-1 IL4 pIC50 [3]: A (A represents a pEC50 value ≥7.5 (EC50≤32 nM))

COc1cnc2cc(Nc3cc(C)[nH]n3)nc(N[C@@H]3C[C@H]4CCC[C@@H](C3)N4Cc3ccncc3)c2c1 [Example 6-28]
BEAS2B pIC50 [2]: A (A represents a pEC50 value ≥7.5 (EC50≤32 nM))
THP-1 IL4 pIC50 [3]: A (A represents a pEC50 value ≥7.5 (EC50≤32 nM))

Cc1cnc2cc(Nc3cc(C)[nH]n3)nc(N[C@@H]3C[C@H]4CCC[C@@H](C3)N4CCC#N)c2c1 [Example 6-6]
BEAS2B pIC50 [2]: A (A represents a pEC50 value ≥7.5 (EC50≤32 nM))
THP-1 IL4 pIC50 [3]: A (A represents a pEC50 value ≥7.5 (EC50≤32 nM))

Cc1cc(Nc2cc3ncccc3c(N[C@@H]3C[C@H]4CCC[C@@H](C3)N4S(=O)(=O)N3CCC3)n2)n[nH]1 [Example 4-29]
BEAS2B pIC50 [2]: A (A represents a pEC50 value ≥7.5 (EC50≤32 nM))
THP-1 IL4 pIC50 [3]: A (A represents a pEC50 value ≥7.5 (EC50≤32 nM))

Cc1cc(Nc2cc3ncccc3c(N[C@@H]3C[C@H]4CCC[C@@H](C3)N4S(=O)(=O)N3CC(C#N)C3)n2)n[nH]1 [Example 11]
decrease in DAI score as compared with vehicle treated animals [1]: did not exhibit a statistically significant decrease

Cc1cc(Nc2cc3ncccc3c(N[C@@H]3C[C@H]4CCC[C@@H](C3)N4CCCF)n2)n[nH]1 [Example 1-40]
BEAS2B pIC50 [2]: A (A represents a pEC50 value ≥7.5 (EC50≤32 nM))
THP-1 IL4 pIC50 [3]: A (A represents a pEC50 value ≥7.5 (EC50≤32 nM))

Cc1cc(Nc2cc3ncccc3c(N[C@@H]3C[C@H]4CCC[C@@H](C3)N4CCF)n2)n[nH]1 [Example 1-39]
BEAS2B pIC50 [2]: A (A represents a pEC50 value ≥7.5 (EC50≤32 nM))
THP-1 IL4 pIC50 [3]: A (A represents a pEC50 value ≥7.5 (EC50≤32 nM))

COc1cnc2cc(Nc3cc(C)[nH]n3)nc(N[C@@H]3C[C@H]4CCC[C@@H](C3)N4S(C)(=O)=O)c2c1 [Example 6-29]
BEAS2B pIC50 [2]: A (A represents a pEC50 value ≥7.5 (EC50≤32 nM))
THP-1 IL4 pIC50 [3]: A (A represents a pEC50 value ≥7.5 (EC50≤32 nM))

Cc1cc(Nc2nc(N[C@@H]3C[C@H]4CCC[C@@H](C3)N4Cc3ccncc3)c3cccnc3c2F)n[nH]1 [Example 8-14]
BEAS2B pIC50 [2]: A (A represents a pEC50 value ≥7.5 (EC50≤32 nM))
THP-1 IL4 pIC50 [3]: A (A represents a pEC50 value ≥7.5 (EC50≤32 nM))

Cc1cc(Nc2cc3nc(CN4CCOCC4)ccc3c(N[C@@H]3C[C@H]4CCC[C@@H](C3)N4S(=O)(=O)c3cncc(F)c3)n2)n[nH]1 [Example 5-30]
BEAS2B pIC50 [2]: A (A represents a pEC50 value ≥7.5 (EC50≤32 nM))
THP-1 IL4 pIC50 [3]: A (A represents a pEC50 value ≥7.5 (EC50≤32 nM))

COc1ccc2c(N[C@@H]3C[C@H]4CC[C@@H](C3)N4CC(C)C)nc(Nc3cc(C)[nH]n3)cc2n1 [Example 5-4]
BEAS2B pIC50 [2]: A (A represents a pEC50 value ≥7.5 (EC50≤32 nM))
THP-1 IL4 pIC50 [3]: A (A represents a pEC50 value ≥7.5 (EC50≤32 nM))

COc1cnc2cc(Nc3cc(C)[nH]n3)nc(N[C@@H]3C[C@H]4CC[C@@H](C3)N4CCC(F)(F)F)c2c1 [Example 6-15]
BEAS2B pIC50 [2]: A (A represents a pEC50 value ≥7.5 (EC50≤32 nM))
THP-1 IL4 pIC50 [3]: A (A represents a pEC50 value ≥7.5 (EC50≤32 nM))

COc1cnc2cc(Nc3cc(C)[nH]n3)nc(N[C@@H]3C[C@H]4CC[C@@H](C3)N4CC(C)C)c2c1 [Example 6-14]
BEAS2B pIC50 [2]: A (A represents a pEC50 value ≥7.5 (EC50≤32 nM))
THP-1 IL4 pIC50 [3]: A (A represents a pEC50 value ≥7.5 (EC50≤32 nM))

COc1ccc2c(N[C@@H]3C[C@H]4CCC[C@@H](C3)N4CCC#N)nc(Nc3cc(C)[nH]n3)cc2n1 [Example 5-10]
BEAS2B pIC50 [2]: A (A represents a pEC50 value ≥7.5 (EC50≤32 nM))
THP-1 IL4 pIC50 [3]: A (A represents a pEC50 value ≥7.5 (EC50≤32 nM))

Cc1cc(Nc2nc(N[C@@H]3C[C@H]4CC[C@@H](C3)N4S(C)(=O)=O)c3cccnc3c2F)n[nH]1 [Example 8-2]
BEAS2B pIC50 [2]: C (C represents a pEC50 value <6.7 (EC50>200 nM))
THP-1 IL4 pIC50 [3]: A (A represents a pEC50 value ≥7.5 (EC50≤32 nM))

Cc1cnc2cc(Nc3cc(C)[nH]n3)nc(N[C@@H]3C[C@H]4CCC[C@@H](C3)N4S(=O)(=O)N3CC(C#N)C3)c2c1 [Example 6-9]
BEAS2B pIC50 [2]: A (A represents a pEC50 value ≥7.5 (EC50≤32 nM))
THP-1 IL4 pIC50 [3]: A (A represents a pEC50 value ≥7.5 (EC50≤32 nM))
